# Measured values published in ChEMBL document CHEMBL1144878, “N-(omega-(4-(2-methoxyphenyl)piperazin-1-yl)alkyl)carboxamides as dopamine D2 and D3 receptor ligands” (J Med Chem, 2003).
# Target: D(2) dopamine receptor (Homo sapiens, UniProt P14416)
# Assay: biochemical
# Description: Binding affinity for human dopamine receptor D2 by displacing [125I]iodosulpiride expressed in CHO cells
# D(2) dopamine receptor, sequence (P14416 whole entry): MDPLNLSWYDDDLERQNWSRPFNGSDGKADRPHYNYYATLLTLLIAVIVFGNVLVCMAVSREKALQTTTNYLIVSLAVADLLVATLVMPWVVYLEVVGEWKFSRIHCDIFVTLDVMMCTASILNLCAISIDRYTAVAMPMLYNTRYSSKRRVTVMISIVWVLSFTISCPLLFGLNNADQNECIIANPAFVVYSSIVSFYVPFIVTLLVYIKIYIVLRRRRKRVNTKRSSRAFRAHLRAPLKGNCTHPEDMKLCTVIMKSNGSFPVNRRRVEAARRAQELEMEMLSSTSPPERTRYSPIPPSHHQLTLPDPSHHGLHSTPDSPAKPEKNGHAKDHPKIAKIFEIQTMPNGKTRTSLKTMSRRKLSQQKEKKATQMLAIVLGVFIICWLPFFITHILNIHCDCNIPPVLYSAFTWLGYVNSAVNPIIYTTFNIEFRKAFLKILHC
row,Ki [nM],Compound
1,10,COc1ccccc1N1CCN(CCCCNC(=O)/C=C/c2ccc(C#N)cc2)CC1
2,35,COc1ccccc1N1CCN(CCCCNC(=O)Cc2ccc3ccccc3c2)CC1
3,36.8,COc1ccccc1N1CCN(CCCCNC(=O)/C=C/c2ccc(C(F)(F)F)cc2)CC1
4,20,COc1ccccc1N1CCN(CCCCNC(=O)/C=C/c2cccc(Cl)c2)CC1
5,126,COc1ccccc1N1CCN(CCCNC(=O)c2ccccc2I)CC1
6,10.3,COc1ccccc1N1CCN(CCCCNC(=O)/C=C/c2ccc3c(c2)OCO3)CC1
7,76.4,COc1ccccc1N1CCN(CCCCNC(=O)/C=C/c2ccc(I)cc2)CC1
8,14,COc1ccccc1/C=C/C(=O)NCCCCN1CCN(c2ccccc2OC)CC1
9,44,COc1ccccc1N1CCN(CCCNC(=O)Cc2cccc3ccccc23)CC1
10,38.5,COc1ccccc1N1CCN(CCCCNC(=O)/C=C/c2cc(I)c(OC)c(OC)c2)CC1
11,8,COc1ccccc1N1CCN(CCCCNC(=O)/C=C/c2cccc3c2OCO3)CC1
12,18,COc1ccccc1N1CCN(CCCCNC(=O)c2cccc3c2-c2ccccc2C3=O)CC1
13,28.4,COc1ccccc1N1CCN(Cc2ccccc2CNC(=O)c2ccc3ccccc3c2)CC1
14,12,COc1ccc(/C=C/C(=O)NCCCCN2CCN(c3ccccc3OC)CC2)cc1
15,103,COc1ccccc1N1CCN(C2CC3CC(NC4CC5CC(N6CCN(c7ccccc7OC)CC6)CC5C4)CC3C2)CC1 (stereo unspecified)
16,19.5,COc1ccccc1N1CCN(CCCCNC(=O)c2ccc(Cl)cc2)CC1

row,Ki [nM],Compound
1,20.7,COc1ccccc1N1CCN(CCCCNC(=O)/C=C/c2ccc(F)cc2)CC1
2,22.6,COc1ccccc1N1CCN(CCCCNC(=O)/C=C/c2ccc(Cl)cc2)CC1
3,23,COc1ccccc1N1CCN(CCCCNC(=O)c2cc3ccccc3oc2=O)CC1
4,330,COc1ccccc1N1CCN(CCCCN2C(=O)C=C(c3ccccc3)C2=O)CC1
5,14,COc1ccccc1N1CCN(CCCCNC(=O)/C=C/c2ccc([N+](=O)[O-])cc2)CC1
6,15.2,COc1ccccc1N1CCN(CCCCNC(=O)c2ccccc2I)CC1
7,56,COc1ccccc1N1CCN(CCCNC(=O)Cc2ccc3ccccc3c2)CC1
8,94.6,COc1ccc2cc([C@H](C)C(=O)NCCCN3CCN(c4ccccc4OC)CC3)ccc2c1
9,128,COc1ccccc1N1CCN(CCCCNC(=O)/C=C/c2ccc(C(C)(C)C)cc2)CC1
10,23.7,COc1ccccc1N1CCN(CCCCNC(=O)/C=C/c2ccc(Br)cc2)CC1
11,145,COc1ccccc1N1CCN(CCCCN2C(=O)c3cc4ccccc4cc3C2=O)CC1
12,161,COc1ccccc1N1CCN(CCCCNC(=O)/C=C/c2cccc(I)c2)CC1
13,117,COc1ccccc1N1CCN(CCCNC(=O)c2ccc(I)cc2)CC1
14,300,COc1ccccc1N1CCN(CCCN2C(=O)c3ccccc3C2=O)CC1
15,45,COc1ccccc1N1CCN(Cc2cccc(CNC(=O)c3ccc4ccccc4c3)c2)CC1

row,Compound,Ki [nM]
1,COc1ccccc1N1CCN(CCCCNC(=O)/C=C/c2ccc(Oc3ccccc3)cc2)CC1,65.2
2,COc1ccccc1N1CCN(CCCCNC(=O)/C=C/c2ccccc2)CC1,13.5
3,COc1ccccc1N1CCN(CCCCNC(=O)c2ccc(-c3ccc(Cl)cc3)o2)CC1,200

# Target: T1, D(3) dopamine receptor (Homo sapiens, UniProt P35462)
# Assay: Effective concentration for Dopamine receptor D3 was determined
# Type: functional
# Target sequence in this assay (P35462 whole entry, looked up): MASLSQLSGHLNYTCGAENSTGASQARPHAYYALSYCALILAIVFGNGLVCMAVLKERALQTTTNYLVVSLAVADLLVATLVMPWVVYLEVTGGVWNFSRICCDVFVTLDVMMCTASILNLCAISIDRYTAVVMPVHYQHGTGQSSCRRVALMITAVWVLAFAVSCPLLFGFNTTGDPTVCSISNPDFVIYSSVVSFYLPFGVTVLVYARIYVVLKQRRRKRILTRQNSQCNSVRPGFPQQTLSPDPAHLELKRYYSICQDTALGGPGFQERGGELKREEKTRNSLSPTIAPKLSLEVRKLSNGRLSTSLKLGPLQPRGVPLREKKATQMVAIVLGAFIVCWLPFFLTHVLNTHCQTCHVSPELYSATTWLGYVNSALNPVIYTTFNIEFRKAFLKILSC
row,EC50 [nM],Compound
1,10,COc1ccccc1N1CCN(CCCCNC(=O)/C=C/c2ccc(Cl)cc2)CC1

# Target: T1, D(3) dopamine receptor
# Assay: biochemical
# Target sequence in this assay (P35462 whole entry): as the sequence (P35462 whole entry, looked up) above
# Description: Binding affinity for human dopamine receptor D3 by displacing [125I]iodosulpiride expressed in CHO cells
row,Ki [nM],Compound
1,0.46,COc1ccccc1N1CCN(CCCCNC(=O)/C=C/c2ccc(C#N)cc2)CC1
2,32,COc1ccccc1N1CCN(CCCCNC(=O)Cc2ccc3ccccc3c2)CC1
3,2.14,COc1ccccc1N1CCN(CCCCNC(=O)/C=C/c2ccc(C(F)(F)F)cc2)CC1
4,0.46,COc1ccccc1N1CCN(CCCCNC(=O)/C=C/c2cccc(Cl)c2)CC1
5,213,COc1ccccc1N1CCN(CCCNC(=O)c2ccccc2I)CC1
6,1,COc1ccccc1N1CCN(CCCCNC(=O)/C=C/c2ccc3c(c2)OCO3)CC1
7,0.5,COc1ccccc1N1CCN(CCCCNC(=O)/C=C/c2ccc(I)cc2)CC1
8,0.56,COc1ccccc1/C=C/C(=O)NCCCCN1CCN(c2ccccc2OC)CC1
9,108,COc1ccccc1N1CCN(CCCNC(=O)Cc2cccc3ccccc23)CC1
10,14.9,COc1ccccc1N1CCN(CCCCNC(=O)/C=C/c2cc(I)c(OC)c(OC)c2)CC1
11,0.55,COc1ccccc1N1CCN(CCCCNC(=O)/C=C/c2cccc3c2OCO3)CC1
12,2.96,COc1ccccc1N1CCN(CCCCNC(=O)c2cccc3c2-c2ccccc2C3=O)CC1
13,750,COc1ccccc1N1CCN(Cc2ccccc2CNC(=O)c2ccc3ccccc3c2)CC1
14,0.38,COc1ccc(/C=C/C(=O)NCCCCN2CCN(c3ccccc3OC)CC2)cc1
15,358,COc1ccccc1N1CCN(C2CC3CC(NC4CC5CC(N6CCN(c7ccccc7OC)CC6)CC5C4)CC3C2)CC1 (stereo unspecified)
16,0.5,COc1ccccc1N1CCN(CCCCNC(=O)c2ccc(Cl)cc2)CC1

row,Ki [nM],Compound
1,0.69,COc1ccccc1N1CCN(CCCCNC(=O)/C=C/c2ccc(F)cc2)CC1
2,0.44,COc1ccccc1N1CCN(CCCCNC(=O)/C=C/c2ccc(Cl)cc2)CC1
3,1.8,COc1ccccc1N1CCN(CCCCNC(=O)c2cc3ccccc3oc2=O)CC1
4,320,COc1ccccc1N1CCN(CCCCN2C(=O)C=C(c3ccccc3)C2=O)CC1
5,0.74,COc1ccccc1N1CCN(CCCCNC(=O)/C=C/c2ccc([N+](=O)[O-])cc2)CC1
6,7.8,COc1ccccc1N1CCN(CCCCNC(=O)c2ccccc2I)CC1
7,140,COc1ccccc1N1CCN(CCCNC(=O)Cc2ccc3ccccc3c2)CC1
8,262,COc1ccc2cc([C@H](C)C(=O)NCCCN3CCN(c4ccccc4OC)CC3)ccc2c1
9,10.2,COc1ccccc1N1CCN(CCCCNC(=O)/C=C/c2ccc(C(C)(C)C)cc2)CC1
10,0.43,COc1ccccc1N1CCN(CCCCNC(=O)/C=C/c2ccc(Br)cc2)CC1
11,23.3,COc1ccccc1N1CCN(CCCCN2C(=O)c3cc4ccccc4cc3C2=O)CC1
12,1.2,COc1ccccc1N1CCN(CCCCNC(=O)/C=C/c2cccc(I)c2)CC1
13,2.85,COc1ccccc1N1CCN(CCCCNC(=O)c2ccc(-c3ccccc3)cc2)CC1
14,396,COc1ccccc1N1CCN(CCCNC(=O)c2ccc(I)cc2)CC1
15,560,COc1ccccc1N1CCN(CCCN2C(=O)c3ccccc3C2=O)CC1
16,100,COc1ccccc1N1CCN(Cc2cccc(CNC(=O)c3ccc4ccccc4c3)c2)CC1

row,Compound,Ki [nM]
1,COc1ccccc1N1CCN(CCCCNC(=O)c2ccc3ccccc3n2)CC1,6.6
2,COc1ccccc1N1CCN(CCCCNC(=O)/C=C/c2ccc(Oc3ccccc3)cc2)CC1,10.1
3,COc1ccccc1N1CCN(CCCCNC(=O)/C=C/c2ccccc2)CC1,0.33
4,COc1ccccc1N1CCN(CCCCNC(=O)c2ccc(-c3ccc(Cl)cc3)o2)CC1,6.3
